Our source for the melting point values is the Bradley open melting point set (2014).

Values joined by “and” are separate entries in the source; they are usually repeats but may differ in a detail not shown here. Equal values may be shown once.

For `OCCN1CCCCC1C(c1ccccc1)c1ccccc1` (centres undefined) [diphemethoxidine], the melting point came out at 106 °C.

In turn, `CCCCCCC(=O)O` [heptanoic_acid] returned a melting point of -6 °C.

In turn, `OCc1ccnc(Br)c1` [2-bromo-4-pyridinemethanol] came in with a melting point of 61 °C.

For the compound `O=C4\C=C3/[C@@H]([C@H]2CC[C@]1([C@@H](CC[C@]1(C#C)O)[C@@H]2CC3)CC)CC4` [(-)-levonorgestrel], the melting point came to 236 °C.

For `O=C(Cl)c1cncc(Br)c1` [5-bromonicotinoyl chloride], the melting point is 73 °C.

`O=C(O)c1ccccc1I` [2-Iodobenzoic acid] displayed a melting point of 162 °C.

Consider `CC12CCC(CC1=O)C2(C)C` (centres undefined) [1,7,7-Trimethylbicyclo[2.2.1]heptan-2-one], for which the melting point was found to be 177 °C.

As to `CCOC(=O)/C=C/c1ccccc1` [Ethyl (2E)-3-phenylacrylate], the melting point came out at 7 °C.

In the case of `CCc1ccc2c(c1)C(=O)c1ccccc1C2=O` [2-ethylanthraquinone], the melting point amounted to 109 °C.

In turn, `CCC/C=C\CCC` [cis-4-octene] returned a melting point of -119 °C.

Turning to `Cc1ccc(S(=O)(=O)CCO)cc1` [2-(p-toluenesulfonyl)ethanol], the melting point stood at 52 °C.

Regarding `Fc1cccc2ccccc12` [1-fluoronaphthalene], the melting point was -10 °C.

For `OB(O)c1ccc(OCc2ccccc2)nc1` [6-benzyloxypyridine-3-boronic acid], the melting point turned out to be 109 °C.

Consider `O=c1c2ccccc2sc2ccccc12` [Thioxanthen-9-one], for which the melting point was determined as 211 °C.

On to `C[C@]12CCC(=O)C=C1CC[C@@H]1[C@@H]2C(=O)C[C@@]2(C)[C@H]1CC[C@]2(O)C(=O)CO` [cortisone], for which the melting point stood at 222 °C.

As to `Oc1cc(O)c(Cl)cc1Cl` [4,6-dichlororesorcinol], the melting point was found to be 115 °C.

As for `CC(C)c1ccccc1O` [2-isopropylphenol], the melting point turned out to be 16 °C.

`c1ccc2c(c1)Cc1cc3ccccc3cc1-2` [2,3-Benzofluorene Benzo[b]fluorene]: the melting point turned out to be 210 °C.

For the compound `CCOC(=O)CC(=O)OCC` [diethyl malonate], the melting point is -50 °C.

Compound `CCCCC(=O)N(Cc1ccc(-c2ccccc2-c2nnn[nH]2)cc1)C(C(=O)O)C(C)C` (centres undefined) [valsartan] came in with a melting point of 116 °C.

Regarding `Cc1cccc2c(O)cc(C(F)(F)F)nc12` [4-hydroxy-8-methyl-2-(trifluoromethyl)quinoline], the melting point was 128 °C.

`C1[C@H]3C[C@@H]2C[C@@H](C[C@H]1C2)C3` [Adamantane] returned a melting point of 269 °C.

`O=C(O)c1cc(O)ccc1O` [2,5-dihydroxybenzoic_acid] returned a melting point of 205 °C.

`CCC(=O)O` [propanoic_acid]: the melting point was -21 °C.

For the compound `COc1ccc2c(c1)c(CC(=O)O)c(C)n2C(=O)c1ccc(Cl)cc1` [indomethacin], the melting point is 159 °C and 160 °C.

Regarding `OC1CCCCCCC1` [cyclooctanol], the melting point was determined as 15 °C.

Consider `CCOC(=O)c1ccc(OC)cc1` [ethyl 4-methoxybenzoate], for which the melting point came to 8 °C.

Turning to `O=C(O)Cc1cccc(F)c1` [3-fluorophenylacetic acid], the melting point is 46 °C.

As for `Cc1ccc(N2C(=O)C=CC2=O)cc1Cl` [1-(3-Chloro-4-methylphenyl)-1H-pyrrole-2,5-dione], the melting point turned out to be 140 °C.

`CCCCCCCCCCc1ccc(N(NC(=O)OC(C)(C)C)C(=O)OC(C)(C)C)cc1CCCCCCCCCC` [1,2-Bis(tert-butoxycarbonyl)-1-(3,4-didecylphenyl)hydrazine]: the melting point worked out at 37.5 °C.

For `O=[N+]([O-])c1cccc(Cl)c1Cl` [1,2-dichloro-3-nitrobenzene], the melting point amounted to 62 °C.

For `O=C(O)Cc1ccccc1` [phenylacetic acid], the melting point was 77.5 °C and 76.7 °C and 77 °C.

As for `O=Cc1ccc(Cl)cc1` [4-Chlorobenzaldehyde], the melting point stood at 46 °C.

As for `CC(C)(C)c1cc(C(C)(C)C)cc(C(C)(C)C)c1` [1,3,5-tri-tert-butylbenzene], the melting point came out at 71 °C.

Take `ClC1=C(Cl)C2(Cl)C3C4CC(C5OC45)C3C1(Cl)C2(Cl)Cl` (centres undefined) [Endrin]: the melting point amounted to 210 °C.

`CC(=O)Nc1nccs1` [2-acetamidothiazole] registered a melting point of 203 °C.

In turn, `CC(=O)Oc1ccccc1C=O` [o-acetoxybenzaldehyde] displayed a melting point of 38 °C.

`OC[C@@H](O)[C@@H](O)[C@@H](O)CO` [D-Ribitol] showed a melting point of 102 °C.

`Cc1cc(O)ccc1F` [4-fluoro-3-methylphenol] had a melting point of 30 °C.

In turn, `Cc1cccc(Nc2ccccc2C(=O)O)c1C` [mefenamic acid] showed a melting point of 230 °C.

`O/N=C(\Cc1ccccc1)c1ccc2ccccc2c1` [(1E)-N-hydroxy-1-(naphthalen-2-yl)-2-phenylethanimine] displayed a melting point of 129 °C.

`C[C@@H]1O[C@@H](O)[C@@H](O)[C@H](O)[C@@H]1O` [L-fucose] registered a melting point of 139 °C.

As to `Cc1ccc(S(=O)(=O)Cl)cc1` [p-toluenesulfonyl_chloride], the melting point is 69 °C.

In the case of `OB(O)c1cccc(F)c1` [3-fluorobenzeneboronic acid], the melting point was determined as 214 °C.

Consider `CC(C)CBr` [1-bromo-2-methylpropane], for which the melting point is -117 °C and -118 °C.

For `CC(C)N(C=O)C(C)C` [N,N-diisopropylformamide], the melting point was 10 °C.

`O=C(c1ccccc1)c1c(F)c(F)c(F)c(F)c1F` [2,3,4,5,6-pentafluorobenzophenone] yielded a melting point of 38 °C.

Turning to `CCOCCO` [2-Ethoxyethanol], the melting point is -90 °C.

Consider `O=C1SCCN1C(=O)c1ccccc1` [3-Benzoyl-1,3-thiazolidin-2-one], for which the melting point was determined as 121 °C.

On to `CC1(C)C(O)[C@H](Cl)[C@@H]2CC[C@H]1O2` (some centres undefined), for which the melting point is 72 °C.

For the compound `COc1ccc(C(=O)/C=C/c2ccc(-c3ccccc3OC)o2)cc1OC`, the melting point came out at 145 °C.

Compound `CC(=O)OCC1OC(C(N)=O)C(OC(C)=O)C(OC(C)=O)C1OC(C)=O` (centres undefined) showed a melting point of 129 °C.

In the case of `COC(=O)c1ccc(B(O)O)cc1` [4-(methoxycarbonyl)benzeneboronic acid], the melting point is 223 °C.

Regarding `Brc1ccccc1` [bromobenzene], the melting point was -31 °C.

In turn, `N#Cc1ccccc1` [Benzonitrile] returned a melting point of -13 °C.

In turn, `COC(=O)c1ccc(C(=O)OC)cc1` [dimethyl terephthalate] registered a melting point of 142 °C.

Compound `CS(=O)(=O)Cl` [methanesulfonyl chloride] had a melting point of -33 °C.

For the compound `O=Cc1ccc(F)c(Cl)c1` [3-chloro-4-fluorobenzaldehyde], the melting point turned out to be 27 °C.

The compound `O=Cc1ccc([N+](=O)[O-])cc1[N+](=O)[O-]` [2,4-dinitrobenzaldehyde] had a melting point of 66 °C.

Take `NC(=O)NO` [Hydroxyurea]: the melting point came out at 144 °C.

`NNC(=O)c1ccncc1` [Isoniazid] yielded a melting point of 171 °C.

Compound `O=Cc1cccnc1Cl` [2-chloropyridine-3-carboxaldehyde] came in with a melting point of 52 °C.

Take `CCBr` [Bromoethane]: the melting point was -119 °C.

`CC(C)C(C)C(C)C` [2,3,4-trimethylpentane] returned a melting point of -109 °C.
